# Reference: paper PMC6364417, “Kinase inhibitor library screening identifies synergistic drug combinations effective in sensitive and resistant melanoma cells” (Journal of Experimental & Clinical Cancer Research : CR, 2019)
# Tests used:
# Test in all cases: Kinase inhibitor library screening, PrestoBlue cell viability, 1 or 10 μM, 72 h
# [1] = tested on: IGR37-GP cells (Dabrafenib-resistant); conditions: for Cell viability in kinase inhibitor library screening, IGR37 GP, 1μΜ: in %
# [2] = tested on: IGR37-XP cells (Vemurafenib-resistant); conditions: for Cell viability in kinase inhibitor library screening, IGR37 XP, 10μΜ / Cell viability in kinase inhibitor library screening, IGR37 XP, 1μΜ / cell viability (kinase inhibitor library screening): 72 h, IGR37 XP; for Cell viability in kinase inhibitor library screening, IGR37 XP, 1μΜ: in %
# IGR37 cells (parental) = conditions: for Cell viability in kinase inhibitor library screening, IGR37 Parental, 10μΜ / cell viability (kinase inhibitor library screening): 72 h, IGR37 Parental; for Cell viability in kinase inhibitor library screening, IGR37 Parental, 10μΜ: in %
# [3] = tested on: 501Mel-XP cells (Vemurafenib-resistant); conditions: 72 h
# A375 cells (parental) = tested on: A375 cells (parental)
# [4] = tested on: 501Mel-GP cells (Dabrafenib-resistant); conditions: 72 h
# 501Mel cells (parental) = conditions: 72 h; for Cell viability in kinase inhibitor library screening, 501Mel Parental, 10μΜ: in %
# Outline: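 Normalised to untreated controls, viability percentages came from PrestoBlue measured on a microplate reader following 72 h incubation with drug. Each line was assayed at least twice.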
# [5] = tested on: A375-XP cells (Vemurafenib-resistant); conditions: for Cell viability in kinase inhibitor library screening, A375 XP, 1μΜ / Cell viability in kinase inhibitor library screening, A375 XP, 10μΜ / cell viability (kinase inhibitor library screening): 72 h, A375 XP
# [6] = tested on: A375-GP cells (Dabrafenib-resistant)
smiles,measurement,setting,value
COCCOc1ccc2c(c1)ncn2-c1ccc2cccc(N3CCC(N)CC3)c2n1 [CP 673451],"Cell viability in kinase inhibitor library screening, IGR37 GP, 10μΜ","[1]; IGR37 GP, 10μΜ, 72 h",88.6%
same,"Cell viability in kinase inhibitor library screening, IGR37 GP, 1μΜ","[1]; IGR37 GP, 72 h",99.0
same,"Cell viability in kinase inhibitor library screening, IGR37 XP, 10μΜ",[2]; 10μΜ,31.6%
same,"Cell viability in kinase inhibitor library screening, IGR37 XP, 1μΜ",[2]; 1μΜ,105.2
same,"Cell viability in kinase inhibitor library screening, IGR37 Parental, 10μΜ",IGR37 cells (parental); 10μΜ,105.1
same,"Cell viability in kinase inhibitor library screening, 501Mel XP, 1μΜ","[3]; 501Mel XP, 1μΜ, in %",107.1
same,"Cell viability in kinase inhibitor library screening, 501Mel XP, 10μΜ","[3]; 501Mel XP, 10μΜ, in %",62.2
same,"Cell viability in kinase inhibitor library screening, A375 Parental, 10μΜ","A375 cells (parental); A375 Parental, 10μΜ, 72 h",71.9
same,"Cell viability in kinase inhibitor library screening, A375 Parental, 1μΜ","A375 cells (parental); A375 Parental, 72 h",104.8
same,"Cell viability in kinase inhibitor library screening, 501Mel GP, 1μΜ","[4]; 501Mel GP, 1μΜ, in %",117.9
same,"Cell viability in kinase inhibitor library screening, 501Mel GP, 10μΜ","[4]; 501Mel GP, 10μΜ, in %",96.1
same,"Cell viability in kinase inhibitor library screening, 501Mel Parental, 10μΜ","501Mel cells (parental); 501Mel Parental, 10μΜ",90.0
same,"Cell viability in kinase inhibitor library screening, A375 XP, 1μΜ",[5]; 1μΜ,109.7
same,"Cell viability in kinase inhibitor library screening, A375 XP, 10μΜ",[5]; 10μΜ,76.9
same,"Cell viability in kinase inhibitor library screening, A375 GP, 1μΜ","[6]; A375 GP, 1μΜ, 72 h",105.4
same,"Cell viability in kinase inhibitor library screening, A375 GP, 10μΜ","[6]; A375 GP, 10μΜ, 72 h",64.4
C=CC(=O)Nc1ccc2ncnc(Nc3ccc(OCc4cccc(F)c4)c(Cl)c3)c2c1 [AST-1306],viability at 1 µM,"[1]; Homo sapiens, IGR-37, 72 h, read-out: cell viability, IGR37 GP, 1μΜ",87.4%
same,viability at 10 µM,"[1]; Homo sapiens, IGR-37, 72 h, read-out: cell viability, IGR37 GP, 10μΜ",2.2%
same,viability at 1 µM,"[2]; Homo sapiens, IGR-37, 72 h, read-out: cell viability, IGR37 XP, 1μΜ",72.8%
same,viability at 10 µM,"[2]; Homo sapiens, IGR-37, 72 h, read-out: cell viability, IGR37 XP, 10μΜ",1.1%
same,viability at 1 µM,"IGR37 cells (parental); Homo sapiens, IGR-37, 72 h, read-out: cell viability, IGR37 Parental, 1μΜ",99.8%
same,viability at 10 µM,"IGR37 cells (parental); Homo sapiens, IGR-37, 72 h, read-out: cell viability, IGR37 Parental, 10μΜ",1.8%
same,viability at 1 µM,"[3]; Homo sapiens, read-out: cell viability, 501Mel XP, 1μΜ",89.2%
same,viability at 10 µM,"[3]; Homo sapiens, read-out: cell viability, 501Mel XP, 10μΜ",-0.162%
same,viability at 1 µM,"A375 cells (parental); Homo sapiens, A-375, 72 h, read-out: cell viability, A375 Parental, 1μΜ",95%
same,viability at 10 µM,"A375 cells (parental); Homo sapiens, A-375, 72 h, read-out: cell viability, A375 Parental, 10μΜ",2.9%
same,viability at 1 µM,"[4]; Homo sapiens, read-out: cell viability, 501Mel GP, 1μΜ",103%
same,viability at 10 µM,"[4]; Homo sapiens, read-out: cell viability, 501Mel GP, 10μΜ",2.3%
same,viability at 1 µM,"501Mel cells (parental); Homo sapiens, read-out: cell viability, 501Mel Parental, 1μΜ",94.1%
same,viability at 10 µM,"501Mel cells (parental); Homo sapiens, read-out: cell viability, 501Mel Parental, 10μΜ",3%
same,viability at 1 µM,"[5]; Homo sapiens, A-375, 72 h, read-out: cell viability, A375 XP, 1μΜ",90.9%
same,viability at 10 µM,"[5]; Homo sapiens, A-375, 72 h, read-out: cell viability, A375 XP, 10μΜ",0.8%
same,viability at 1 µM,"[6]; Homo sapiens, A-375, 72 h, read-out: cell viability, A375 GP, 1μΜ",85.4%
same,viability at 10 µM,"[6]; Homo sapiens, A-375, 72 h, read-out: cell viability, A375 GP, 10μΜ",0.6%
O=C1NC(=O)/C(=C/c2ccc3c(c2)OC(F)(F)O3)S1 [AS-604850],"Cell viability in kinase inhibitor library screening, IGR37 GP, 10μΜ","[1]; IGR37 GP, 10μΜ, 72 h",98%
same,"Cell viability in kinase inhibitor library screening, IGR37 GP, 1μΜ","[1]; IGR37 GP, 72 h",103.0
same,"Cell viability in kinase inhibitor library screening, IGR37 XP, 10μΜ",[2]; 10μΜ,80.4%
same,"Cell viability in kinase inhibitor library screening, IGR37 XP, 1μΜ",[2]; 1μΜ,91.9
same,"Cell viability in kinase inhibitor library screening, IGR37 Parental, 10μΜ",IGR37 cells (parental); 10μΜ,108.6
same,"Cell viability in kinase inhibitor library screening, 501Mel XP, 10μΜ","[3]; 501Mel XP, 10μΜ, in %",90.1
same,"Cell viability in kinase inhibitor library screening, A375 Parental, 10μΜ","A375 cells (parental); A375 Parental, 10μΜ, 72 h",95.5
same,"Cell viability in kinase inhibitor library screening, A375 Parental, 1μΜ","A375 cells (parental); A375 Parental, 72 h",104.7
same,"Cell viability in kinase inhibitor library screening, 501Mel GP, 10μΜ","[4]; 501Mel GP, 10μΜ, in %",91.8
same,"Cell viability in kinase inhibitor library screening, 501Mel Parental, 10μΜ","501Mel cells (parental); 501Mel Parental, 10μΜ",104.4
same,"Cell viability in kinase inhibitor library screening, A375 XP, 1μΜ",[5]; 1μΜ,109.0
same,"Cell viability in kinase inhibitor library screening, A375 XP, 10μΜ",[5]; 10μΜ,106.1
same,"Cell viability in kinase inhibitor library screening, A375 GP, 10μΜ","[6]; A375 GP, 10μΜ, 72 h",98.8
Cc1ccc(NC(=O)c2ccc(CN3CCN(C)CC3)cc2)cc1Nc1nc(-c2cccnc2)cs1 [Masitinib (AB1010)],cell viability (kinase inhibitor library screening),"[1]; IGR37 GP, 10μΜ, 72 h",77.4%
same,cell viability (kinase inhibitor library screening),[2]; 1μΜ,103.2%
same,cell viability (kinase inhibitor library screening),[2]; 10μΜ,49.1%
same,cell viability (kinase inhibitor library screening),IGR37 cells (parental); 1μΜ,98.6%
same,cell viability (kinase inhibitor library screening),IGR37 cells (parental); 10μΜ,92.0%
same,cell viability (kinase inhibitor library screening),"[3]; 501Mel XP, 1μΜ",94.5%
same,cell viability (kinase inhibitor library screening),"[3]; 501Mel XP, 10μΜ",20.4%
same,cell viability (kinase inhibitor library screening),"A375 cells (parental); A375 Parental, 10μΜ, 72 h",87.9%
same,cell viability (kinase inhibitor library screening),"[4]; 501Mel GP, 1μΜ",103.1%
same,cell viability (kinase inhibitor library screening),"[4]; 501Mel GP, 10μΜ",85.2%
same,cell viability (kinase inhibitor library screening),"501Mel cells (parental); 501Mel Parental, 10μΜ",88.8%
same,cell viability (kinase inhibitor library screening),[5]; 1μΜ,105.3%
same,cell viability (kinase inhibitor library screening),[5]; 10μΜ,94.5%
same,cell viability (kinase inhibitor library screening),"[6]; A375 GP, 1μΜ, 72 h",98.6%
same,cell viability (kinase inhibitor library screening),"[6]; A375 GP, 10μΜ, 72 h",85.2%
